From patent publication US10087185B2 (Janssen Pharmaceutica NV, priority 2016, dated 2018) come the findings set out here.

The target in the test is TARP γ8 dependent AMPA receptor (GRIA1o-CACNG8 fusion construct) (Homo sapiens (Human), UniProt P42261+Q8WXS5). Description: Calcium flux assay (FLIPR), inhibition of glutamate response of GluA1o-γ8 channel. It counts as cell-based. The settings on record: HEK293 cells stably expressing GRIA1o-CACNG8 fusion; calcium flux after 15 μM glutamate; negative log of the IC50 in molar. In a few lines: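 HEK293 clonal line stably expressing a GRIA1o-CACNG8 fusion (1:1 GluA1o:γ8), loaded with Calcium-5/6 dye plus compound in HEPES buffer pH 7.4. FLIPR calcium flux read after 15 μM glutamate; normalized to no-compound and 10 μM CP465022 controls. Four-parameter logistic fit gives IC50, reported as pIC50.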
Sequence of TARP γ8 dependent AMPA receptor (GRIA1o-CACNG8 fusion construct) (P42261 other isoform, or with tags, fused parts or gaps): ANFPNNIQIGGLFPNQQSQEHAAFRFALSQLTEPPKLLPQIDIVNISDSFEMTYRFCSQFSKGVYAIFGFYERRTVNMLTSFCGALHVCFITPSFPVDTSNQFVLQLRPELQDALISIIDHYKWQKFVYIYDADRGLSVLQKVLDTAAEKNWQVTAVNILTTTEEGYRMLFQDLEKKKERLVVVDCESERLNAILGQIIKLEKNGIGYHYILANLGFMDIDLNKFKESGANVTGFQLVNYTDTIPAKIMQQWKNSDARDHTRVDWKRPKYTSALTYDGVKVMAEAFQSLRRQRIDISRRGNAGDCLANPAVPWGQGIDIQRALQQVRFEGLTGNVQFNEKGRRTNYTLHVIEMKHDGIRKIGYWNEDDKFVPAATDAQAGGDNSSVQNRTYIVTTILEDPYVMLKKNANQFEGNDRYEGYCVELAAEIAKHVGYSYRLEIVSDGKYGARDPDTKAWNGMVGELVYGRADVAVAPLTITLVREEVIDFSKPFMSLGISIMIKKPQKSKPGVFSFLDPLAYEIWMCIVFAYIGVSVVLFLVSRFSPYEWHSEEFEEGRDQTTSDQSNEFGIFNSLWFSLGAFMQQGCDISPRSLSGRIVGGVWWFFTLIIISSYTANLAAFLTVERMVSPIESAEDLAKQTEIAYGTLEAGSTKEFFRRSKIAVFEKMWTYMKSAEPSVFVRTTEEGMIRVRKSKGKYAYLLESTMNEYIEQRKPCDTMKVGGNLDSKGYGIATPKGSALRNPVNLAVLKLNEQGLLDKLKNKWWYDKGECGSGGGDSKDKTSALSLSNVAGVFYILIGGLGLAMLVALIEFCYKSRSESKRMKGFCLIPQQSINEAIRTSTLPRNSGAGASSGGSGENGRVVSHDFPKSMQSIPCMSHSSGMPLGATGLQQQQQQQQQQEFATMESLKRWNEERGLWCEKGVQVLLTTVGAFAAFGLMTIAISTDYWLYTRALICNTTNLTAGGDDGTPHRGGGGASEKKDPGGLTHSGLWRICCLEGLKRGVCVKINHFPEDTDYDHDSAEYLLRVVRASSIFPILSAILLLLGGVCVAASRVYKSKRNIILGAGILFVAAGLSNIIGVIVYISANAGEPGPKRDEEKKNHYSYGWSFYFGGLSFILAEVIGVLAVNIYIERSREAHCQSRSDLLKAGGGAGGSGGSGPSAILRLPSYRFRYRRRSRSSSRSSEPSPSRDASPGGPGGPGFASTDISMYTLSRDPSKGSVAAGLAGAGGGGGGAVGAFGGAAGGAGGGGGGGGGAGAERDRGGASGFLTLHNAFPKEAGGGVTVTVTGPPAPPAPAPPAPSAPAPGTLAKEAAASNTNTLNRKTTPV

Molecules are shown by their SMILES.

As usually defined, the IC50 is the concentration needed to halve the response being measured. As usually defined, the pIC50 is the negative decadic logarithm of the IC50, by convention in mol/L.

Regarding `CCCc1nc2c(C)cc(C(F)(F)F)c(-c3cc(Cl)c4[nH]ncc4c3)n2n1` [Example 83, 5-(7-Chloro-1H-indazol-5-yl)-8-methyl-2-propyl-6-(trifluoromethyl)-[1,2,4]triazolo[1,5-a]pyridine], the IC50 is 200 pM.
Consider `CCCc1nc2c(C)cc(C(F)(F)F)c(-c3cc(C)c4[nH]ncc4c3)n2n1` [Example 84, 8-Methyl-5-(7-methyl-1H-indazol-5-yl)-2-propyl-6-(trifluoromethyl)-[1,2,4]triazolo[1,5-a]pyridine], for which the IC50 was 1000 pM.
Take `CCCc1nc2c(C)cc(C(F)(F)F)c(-c3cc(C)c4c(c3)CC(=O)N4)n2n1` [Example 85, 7-Methyl-5-(8-methyl-2-propyl-6-(trifluoromethyl)-[1,2,4]triazolo[1,5-a]pyridin-5-yl)indolin-2-one]: the IC50 was 316 pM.
Turning to `Cc1cc(-c2c(C(F)(F)F)cc(C)c3nc(C(F)F)nn23)cc2cn[nH]c12` [Example 86, 2-(Difluoromethyl)-8-methyl-5-(7-methyl-1H-indazol-5-yl)-6-(trifluoromethyl)-[1,2,4]triazolo[1,5-a]pyridine], the pIC50 was 9.4.
Turning to `CCc1cc(C(F)(F)F)c(-c2cc(Cl)c3[nH]ncc3c2)n2nc(C(F)F)nc12` [Example 87, 5-(7-Chloro-1H-indazol-5-yl)-2-(difluoromethyl)-8-ethyl-6-(trifluoromethyl)-[1,2,4]triazolo[1,5-a]pyridine], the IC50 is 398 pM.
As for `CCc1cc(C(F)(F)F)c(-c2cc(C)c3[nH]ncc3c2)n2nc(C(F)F)nc12` [Example 88, 2-(Difluoromethyl)-8-ethyl-5-(7-methyl-1H-indazol-5-yl)-6-(trifluoromethyl)-[1,2,4]triazolo[1,5-a]pyridine], the half-inhibitory concentration (IC50) was 1580 pM.
Same read-out and setting: for `CCc1nc2c(CC)cc(C(F)(F)F)c(-c3cc(Cl)c4[nH]ncc4c3)n2n1` [Example 89, 5-(7-Chloro-1H-indazol-5-yl)-2,8-diethyl-6-(trifluoromethyl)-[1,2,4]triazolo[1,5-a]pyridine] the value was 794 pM; for `CCc1nc2c(CC)cc(C(F)(F)F)c(-c3cc(C)c4[nH]ncc4c3)n2n1` [Example 90, 2,8-Diethyl-5-(7-methyl-1H-indazol-5-yl)-6-(trifluoromethyl)-[1,2,4]triazolo[1,5-a]pyridine], 3160 pM; for `CCc1cc(C(F)F)c(-c2cc(Cl)c3[nH]ncc3c2)n2nc(C(F)(F)F)nc12` [Example 91, 5-(7-Chloro-1H-indazol-5-yl)-6-(difluoromethyl)-8-ethyl-2-(trifluoromethyl)-[1,2,4]triazolo[1,5-a]pyridine], 501 pM.
Consider `CCc1cc(C(F)F)c(-c2cc(C)c3[nH]ncc3c2)n2nc(C(F)(F)F)nc12` [Example 92, 6-(Difluoromethyl)-8-ethyl-5-(7-methyl-1H-indazol-5-yl)-2-(trifluoromethyl)-[1,2,4]triazolo[1,5-a]pyridine], for which the IC50 was 1000 pM.
In the case of `CCc1cc(C(F)F)c(-c2cc(Cl)c3[nH]ncc3c2)n2nc(C3CC3)nc12` [Example 93, 5-(7-Chloro-1H-indazol-5-yl)-2-cyclopropyl-6-(difluoromethyl)-8-ethyl-[1,2,4]triazolo[1,5-a]pyridine], the IC50 was 158 pM.
On the same count and under the same terms, for `CCc1cc(C(F)F)c(-c2cc(C)c3[nH]ncc3c2)n2nc(C3CC3)nc12` [Example 94, 2-Cyclopropyl-6-(difluoromethyl)-8-ethyl-5-(7-methyl-1H-indazol-5-yl)-[1,2,4]triazolo[1,5-a]pyridine] the value was 398 pM; for `CCCc1nc2c(C)cc(C(F)F)c(-c3cc(C)c4[nH]ncc4c3)n2n1` [Example 95, 6-(Difluoromethyl)-8-methyl-5-(7-methyl-1H-indazol-5-yl)-2-propyl-[1,2,4]triazolo[1,5-a]pyridine], 3160 pM; for `CCCc1nc2c(Cl)cc(C(F)(F)F)c(-c3cc(Cl)c4[nH]ncc4c3)n2n1` [Example 96, 8-Chloro-5-(7-chloro-1H-indazol-5-yl)-2-propyl-6-(trifluoromethyl)-[1,2,4]triazolo[1,5-a]pyridine], 398 pM.
